pIC50: −log10 of the molar value.
target: T1, recombinant human DGAT1 (Homo sapiens, UniProt O75907); assay: DGAT1 enzyme assay (SPA, membranes from Sf9 insect cells); format: biochemical; conditions: 300 ng recombinant human DGAT1 membrane (Sf9), 25 μM 2-monooleoylglycerol, 25 μM [3H]-stearoyl-CoA, pH 7.4, 30 min, 25° C.; read-out: DGAT1 Enzyme Assay IC50 (inhibition)
T1 construct: made in house; host or cells: Sf9 insect cells (baculovirus), used as a membrane preparation
T1 sequence (O75907 1-488): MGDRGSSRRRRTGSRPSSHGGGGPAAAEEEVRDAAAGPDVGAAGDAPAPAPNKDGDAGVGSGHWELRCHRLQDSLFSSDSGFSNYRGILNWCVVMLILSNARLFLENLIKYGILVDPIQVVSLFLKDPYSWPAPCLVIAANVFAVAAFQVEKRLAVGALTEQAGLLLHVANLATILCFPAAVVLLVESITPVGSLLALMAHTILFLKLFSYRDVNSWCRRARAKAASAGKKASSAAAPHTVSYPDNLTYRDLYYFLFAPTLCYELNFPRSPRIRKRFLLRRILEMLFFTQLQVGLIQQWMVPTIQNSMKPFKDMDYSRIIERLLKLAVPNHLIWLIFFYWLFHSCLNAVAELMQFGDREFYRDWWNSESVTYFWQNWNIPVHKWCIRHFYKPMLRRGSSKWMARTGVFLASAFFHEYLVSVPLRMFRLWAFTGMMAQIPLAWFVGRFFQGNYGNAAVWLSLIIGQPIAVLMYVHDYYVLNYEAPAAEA
Method: DGAT1 enzyme assays were conducted using membranes isolated from Sf9 insect cells expressing the recombinant human DGAT1 cDNA. The assays were conducted in 384-well plates with total volume of 25 μl at 25° C. In each assay, 300 ng of recombinant human DGAT1 membrane was incubated with 25 μM of 2-monooleoylglycerol and 25 μM of [^3H]-stearoyl-CoA in 100 mM potassium phosphate (pH 7.4) for 30 min with various concentrations of compounds delivered in DMSO. The assay was terminated by the addition of 30 μl of Stopping Solution [50 mM HEPES, 5 mg/mL Yttrium Oxide (YOX) Polylysine SPA beads, 3.33 mg/mL Fraction V BSA, 200 μM Mercuric chloride]. The signal was measured using LEADSEEKER^SM for 5 minutes. To calculate the degree of inhibition, the zero level of enzyme activity (blank) was defined by the above assay using Sf9 cell membrane uninfected with baculovirus and the 100% level of DGAT1 enzyme activity was defined by human DGAT1 assay with the vehicle DMSO. The IC50 values of inhibitors were determined by Excel-fit.

O=C(O)CNC(=O)c1cccn2c(-c3ccc(NC(=O)Nc4ccccc4OC(F)(F)F)cc3)nnc12 [Example 5] and O=C(O)CCNC(=O)c1cccn2c(-c3ccc(NC(=O)Nc4ccccc4OC(F)(F)F)cc3)nnc12 [Example 6] are within 0.2 log units of each other in pIC50: 6.77 for the first, 6.82 for the second.

Compared with O=C(Nc1ccc(-c2nnc3c(C(=O)N[C@@H](Cc4ccccc4)C(=O)O)cccn23)cc1)Nc1ccccc1OC(F)(F)F [Example 11], CC[C@H](C)[C@H](NC(=O)c1cccn2c(-c3ccc(NC(=O)Nc4ccccc4OC(F)(F)F)cc3)nnc12)C(=O)O [Example 16] is 1.70 log units higher in pIC50: 6.82 for the first, 8.52 for the second.

Compared with O=C(Nc1ccc(-c2nnc3c(C(=O)N[C@H](C(=O)O)C4CCCCC4)cccn23)cc1)Nc1ccccc1OC(F)(F)F [Example 14], COC(=O)Nc1ccc(-c2nnc3c(C(=O)N4CCC[C@H]4C(=O)O)cccn23)cc1 [Example 22, (S)-1-(3-(4-(Methoxycarbonylamino)phenyl)-[1,2,4]triazolo[4,3-a]pyridine-8-carbonyl)pyrrolidine-2-carboxylic acid] is 2.23 log units lower in pIC50: 6.74 for the first, 4.51 for the second.

First: CCC(=O)Nc1ccc(-c2nnc3c(C(=O)N[C@H](C(=O)O)C(C)C)cccn23)cc1 [Example 23, (S)-3-Methyl-2-(3-(4-propionamidophenyl)-[1,2,4]triazolo[4,3-a]pyridine-8-carboxamido)butanoic acid]
Second: CC(C)[C@H](NC(=O)c1cccn2c(-c3ccc(Nc4nc5ccc(Cl)cc5s4)cc3)nnc12)C(=O)O [Example 25, (S)-2-(3-(4-(6-Chlorobenzo[d]thiazol-2-ylamino)phenyl)-[1,2,4-]triazolo[4,3-a]pyridine-8-carboxamido)-3-methylbutanoic acid]
The pIC50 of the first is 3.78 log units lower: 4.37 for the first, 8.15 for the second.

CC[C@H](NC(=O)c1cccn2c(-c3ccc(Nc4nc5ccc(Cl)cc5s4)cc3)nnc12)C(=O)O [Example 41] and CC(C)[C@H](NC(=O)c1nccn2c(-c3ccc(Nc4nc5ccc(Cl)cc5s4)cc3)nnc12)C(=O)O [Example 63, (S)-2-(3-(4-(6-Chlorobenzothiazol-2-ylamino)phenyl)-[1,2,4]triazolo[4,3-a]pyrazine-8-carboxamido)-3-methylbutanoic acid] are within 0.2 log units of each other in pIC50: 8.30 for the first, 8.15 for the second.

C[C@@H](NC(=O)c1cccn2c(-c3ccc(Nc4nccs4)cc3)nnc12)C(=O)O [Example 47] and O=C(O)CNC(=O)c1cccn2c(-c3ccc(Nc4nccs4)cc3)nnc12 [Example 53] are within 0.2 log units of each other in pIC50: 4.55 for the first, 4.64 for the second.

Source: US8324241B2, “Triazolo compounds useful as DGAT1 inhibitors” (Bristol-Myers Squibb Company, priority 2008, dated 2012)
